For three molecules, pest or weed control results are on record in US20120115724A1, “METHOD OF CONTROLLING UNDESIRED VEGETATION” (SYNGENTA CROP PROTECTION LLC, priority 2009, published 2012).

What all share (format): in vivo
Assay [1] deals with AMARE Amaranthus retroflexus. The assay can be described thus: Post-emergence crop and weed test (Example 15). The note with it: 360 h, after 15 days, read-out: Percentage damage AMARE. The essentials:
(§1)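 Plants grown 14 days in glasshouse pots (22/16 °C day/night, 16 h light, 65% humidity) were sprayed post-emergence with compound formulated as a 5% stock in acetone/Emulsogen EL/NMP/DPG-monoethyl ether, diluted in water with 0.2% X-77. Damage was scored after 15 days (0 = none, 100 = total).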

Assay [2] relates to SINAR Sinapis arvensis. As to the kind of experiment: Post-emergence crop and weed test (Example 15). The note with it: Mutarda arvensis, 360 h, after 15 days, read-out: Percentage damage SINAR. The essentials:
as §1

For assay [3], the system named is XANST Xanthium strumarium. The assay can be described thus: Post-emergence crop and weed test (Example 15). The conditions noted are these: 360 h, after 15 days, read-out: Percentage damage XANST. Summed up:
as §1

Assay [4] deals with EPHHL Euphorbia heterophylla. The assay can be described thus: Post-emergence crop and weed test (Example 15). The conditions noted are these: 360 h, after 15 days, read-out: Percentage damage EPHHL. Summed up: as §1
The test system of assay [5] is SIDSP Sida spinosa. As to the kind of experiment: Post-emergence crop and weed test (Example 15). The conditions noted are these: 360 h, after 15 days, read-out: Percentage damage SIDSP. The essentials: as §1
The subject of assay [6] is KCHSC Kochia scoparia. As to the kind of experiment: Post-emergence crop and weed test (Example 15). The conditions noted are these: Bassia scoparia, 360 h, after 15 days, read-out: Percentage damage KCHSC. The essentials: as §1
In assay [7] the test system is Ipomea hederaceae (IPOHE). As to the kind of experiment: Post-emergence biological efficacy (Example 14). The note with it: Ipomoea hederacea, 312 h; post-emergence, 1,000 g/ha, after 13 days; read-out: Percentage damage IPOHE. The essentials: (§2)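 Pot-grown seedlings raised 8 days in a glasshouse (24/16 °C day/night, 14 h light, 65% humidity) were sprayed post-emergence with compound in acetone/water (50:50) plus 0.5% Tween 20 at 250 or 1000 g/ha. Damage was scored visually after 13 days on a 0–100 scale (100 = total kill).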

The subject of assay [8] is Setaria faberi (SETFA). As to the kind of experiment: Post-emergence biological efficacy (Example 14). The conditions noted are these: Setaria faberi, 312 h; post-emergence, 1,000 g/ha, after 13 days; read-out: Percentage damage SETFA. The essentials:
as §2

In assay [9] the test system is Solanum nigrum (SOLNI). As to the kind of experiment: Post-emergence biological efficacy (Example 14). The conditions noted are these: Solanum nigrum, 312 h; post-emergence, 1,000 g/ha, after 13 days; read-out: Percentage damage SOLNI. Summed up:
as §2

The subject of assay [10] is Alopecurus myosuroides (ALOMY). The assay can be described thus: Post-emergence biological efficacy (Example 14). The conditions noted are these: Alopecurus myosuroides, 312 h; post-emergence, 1,000 g/ha, after 13 days; read-out: Percentage damage ALOMY. The essentials: as §2
Assay [11] relates to Echinochloa crus-galli (ECHCG). The assay can be described thus: Post-emergence biological efficacy (Example 14). The note with it: Echinochloa crus-galli, 312 h; post-emergence, 1,000 g/ha, after 13 days; read-out: Percentage damage ECHCG. Summed up:
as §2

Assay [12] concerns Amaranthus retroflexus (AMARE). The assay can be described thus: Post-emergence biological efficacy (Example 14). The note with it: Amaranthus retroflexus, 312 h; post-emergence, 1,000 g/ha, after 13 days; read-out: Percentage damage AMARE. The essentials:
as §2

The subject of assay [13] is Ipomea hederaceae (IPOHE). The assay can be described thus: Pre-emergence biological efficacy (Example 13). The conditions noted are these: Ipomoea hederacea, 312 h; pre-emergence, 1,000 g/ha, after 13 days; read-out: Percentage damage IPOHE. Summed up: (§3)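 Seeds sown in standard soil in pots, kept one day in a glasshouse (24/16 °C day/night, 14 h light, 65% humidity), then sprayed with aqueous solution from acetone/water (50:50) with 0.5% Tween 20 at 250 or 1000 g/ha. Damage scored after 13 days (0 = none, 100 = total).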

For assay [14], the system named is Setaria faberi (SETFA). The assay can be described thus: Pre-emergence biological efficacy (Example 13). The note with it: Setaria faberi, 312 h; pre-emergence, 1,000 g/ha, after 13 days; read-out: Percentage damage SETFA. Summed up:
as §3

Assay [15] relates to Solanum nigrum (SOLNI). As to the kind of experiment: Pre-emergence biological efficacy (Example 13). The conditions noted are these: Solanum nigrum, 312 h; pre-emergence, 1,000 g/ha, after 13 days; read-out: Percentage damage SOLNI. The essentials:
as §3

For assay [16], the system named is Alopecurus myosuroides (ALOMY). The assay can be described thus: Pre-emergence biological efficacy (Example 13). The note with it: Alopecurus myosuroides, 312 h; pre-emergence, 1,000 g/ha, after 13 days; read-out: Percentage damage ALOMY. The essentials: as §3
Assay [17] deals with Echinochloa crus-galli (ECHCG). As to the kind of experiment: Pre-emergence biological efficacy (Example 13). The note with it: Echinochloa crus-galli, 312 h; pre-emergence, 1,000 g/ha, after 13 days; read-out: Percentage damage ECHCG. Summed up:
as §3

The test system of assay [18] is Amaranthus retroflexus (AMARE). As to the kind of experiment: Pre-emergence biological efficacy (Example 13). The conditions noted are these: Amaranthus retroflexus, 312 h; pre-emergence, 1,000 g/ha, after 13 days; read-out: Percentage damage AMARE. The essentials:
as §3

Molecules are shown by their SMILES.

As for `C/C=C/c1c(N)nc(-c2ccc(Cl)c(OC)c2F)nc1C(=O)OC` [Compound 3, (E)-4-Amino-2-(4-chloro-2-fluoro-3-methoxy-phenyl)-6-methoxy-carbonyl-5-(prop-1-enyl)-pyrimidine], the pest or weed control at 125 g/ha in assay [1] (125 g/ha) was found to be 100%; in assay [2] (125 g/ha), 70%; in assay [3] (125 g/ha), 80%; in assay [4] (125 g/ha), 90%; in [5] (125 g/ha), 80%; in [6] (125 g/ha), 80%. For the same molecule, the pest or weed control at 1000 g/ha in assay [7] was determined as 90%; in assay [8] it was 100%; in assay [9], 100%; in assay [10], 90%; in assay [11], 100%; in assay [12], 100%. For the same molecule, the pest or weed control at 1000 g/ha in [13] is 90%; in assay [14], 80%; in [15], 80%; in [16] it was 90%; in assay [17], 90%; in assay [18], 50%.

As for `C/C=C\c1c(N)nc(-c2ccc(Cl)c(OC)c2F)nc1C(=O)OC` [Compound 4, (Z)-4-Amino-2-(4-chloro-2-fluoro-3-methoxy-phenyl)-6-methoxy-carbonyl-5-(prop-1-enyl)-pyrimidine], the pest or weed control at 8 g/ha in assay [1] (8 g/ha) worked out at 80%; in [2] (8 g/ha), 60%; in [3] (8 g/ha) it was 90%; in assay [4] (8 g/ha) it was 90%; in assay [5] (8 g/ha), 50%; in assay [6] (8 g/ha) it was 30%. Moreover, the pest or weed control at 1000 g/ha in [7] is 100%; in assay [8], 90%; in [9], 80%; in [10], 70%; in assay [11], 80%; in assay [12] it was 100%. Moreover, the pest or weed control at 1000 g/ha in [13] was 100%; in assay [14], 80%; in assay [15], 100%; in assay [16] it was 80%; in [17], 90%; in [18], 100%.

`C/C=C\c1c(N)nc(-c2ccc(Cl)c(N(C)C)c2F)nc1C(=O)OC` [Compound 5, (Z)-4-Amino-2-(4-chloro-3-dimethylamino-2-fluorophenyl)-6-methoxy-carbonyl-5-(prop-1-enyl)-pyrimidine]: the pest or weed control at 30 g/ha in assay [1] (30 g/ha) stood at 90%; in [2] (30 g/ha), 80%; in assay [3] (30 g/ha), 70%; in assay [4] (30 g/ha) it was 60%; in [5] (30 g/ha) it was 0%; in assay [6] (30 g/ha), 70%. Further, the pest or weed control at 1000 g/ha turned out to be 30% in assay [7]; 70% in assay [8]; 80% in assay [9]; 60% in assay [10]; 70% in [11]; 100% in assay [12]. Besides, the pest or weed control at 1000 g/ha in assay [13] turned out to be 20%; in assay [14], 30%; in assay [15] it was 60%; in assay [16], 30%; in [17] it was 30%; in assay [18], 70%.
